Experimental data published in patent publication US7132542B2, “Compounds for the treatment of male erectile dysfunction” (Bristol-Myers Squibb Company, priority 2003, dated 2006).

Columns and labels:
[1] = test system: cloned mammalian (mSlo or hSlo) BK channel; assay: Assay for BK channel openers: two-electrode voltage clamp of BK-mediated outward current in Xenopus oocytes; type: cell-based; details: percent increase over BK current in controls, voltage step to +140 mV, IBTX-sensitive current
Protocol: The ability of the compounds of the invention to open BK channels and increase whole-cell outward (K^+) BK-mediated currents was assessed under voltage-clamp conditions by determining their ability to increase cloned mammalian (mSlo or hSlo) BK-mediated outward current heterologously expressed in Xenopus oocytes [Butler, A., et al., Science 1993, 261, 221–224; Dworetzky, S. I., et al., Mol. Brain Res. 1994, 27, 189–193; Gribkoff, V. K., et al., Mol. Pharmacol. 1996, 50, 206–217]. The two BK constructs employed represent nearly structurally identical homologous proteins, and have proven to be pharmacologically indistinguishable in our tests. To isolate BK current from native (background, non-BK) current, the specific and potent BK channel-blocking toxin iberiotoxin (IBTX) [Galvez, A., et al., J. Biol. Chem. 1990, 265, 11083–11090] was employed at a supramaximal concentration, e.g., 50–100 nanomolar (“nM”). The relative contribution of BK channel-mediated current to total outward current was determined by subtraction of the current remaining in the presence of IBTX (non-BK current) from the current profiles obtained in all other experimental conditions (control, drug, and wash) [Gribkoff, V. K. et al., Mol. Pharmacol. 1996, 50, 206–217]. […] All compounds were tested in 5–10 oocytes and are reported at the indicated concentration of 20 micromolar (“μM”) (or as otherwise indicated); the effect of the selected compounds of the invention on BK current was expressed as the percent of control IBTX-sensitive current at a single transmembrane voltage (+140 mV) and is listed in Table 1. Recordings were accomplished using standard two-electrode voltage clamp techniques [Stuhmer, W., et al., Methods in Enzymology, 1992, 207, 319–339]; voltage-clamp protocols consisted of 500–750 milliseconds (“ms”) duration step depolarizations, from a holding potential of −60 mV, to a final voltage up to +140 mV in 20 mV steps. The experimental media (modified Barth's solution) consisted of millimolar (“mM”): NaCl (88), NaHCO3 (2.4), KCl (1.0), HEPES (10), MgSO4 (0.82), Ca(NO3)2 (0.33), CaCl2 (0.41); pH 7.5.

[2] = test system: rabbit corpus cavernosum tissue; assay: Relaxation of rabbit corpus cavernosum strips precontracted with phenylephrine; details: Oryctolagus cuniculus; inhibition of phenylephrine (3 μM)-induced force as compared to vehicle control; read-out: % Inhibition of force (RCC strips)
Protocol: The ability of the compounds of the invention to relax rabbit corpus cavernosum tissue as a model for the treatment of erectile dysfunction is described as follows. New Zealand white rabbits (3.4–3.7 kg) were euthanized by sodium pentobarbital (100 mg/kg) overdose. The penis from each animal was rapidly removed and immersed in a cold oxygenated modified Krebs Henseleit bicarbonate buffer. The penis' outer tunica was removed and the corpus cavernosum smooth muscle obtained and cut into strips approximately 3–5 mm long. The strips were suspended in tissue baths containing physiological salt solution (see above), and allowed to equilibrate for at least one hour under resting tension of 1.0 gram. Isometric force was measured as described above. Tissue strips were stimulated with the α-agonist phenylephrine (3 μM) and allowed to reach a steady level of force prior to the addition of test compounds. The results are expressed as the percentage inhibition of phenylephrine-induced force as compared to vehicle control.

[3] = test system: rat small intestine tissue; assay: Relaxation of rat small intestine (ileum) segments; set-up: concentration or dose not given beside the values; details: integral of nifedipine-sensitive force, 30 min post-compound addition
Source text: The ability of the compounds of the invention to relax rat small intestine tissue as a model for the treatment of irritable bowel syndrome is described as follows. Male rats (Harlan, Sprague Dawley, 250–350 g) were sacrificed by decapitation. A portion of small intestine (ileum) was removed and the attached connective tissues and intestinal contents removed. The ileum was cut into segments of ≦1 cm in length. The segments were mounted longitudinally between fixed hooks in organ baths containing warm (37° C.) physiological salt solution (composition in mM: NaCl 118.4, KCl 4.7, KH2PO4 1.2, MgSO4 1.2, CaCl2 1.8, Glucose 10.1, NaHCO3 25; gassed with 95% O2/5% CO2, pH 7.4). A stable tension of ˜1.5 g was maintained in the tissue segments during the equilibration period of 45 minutes. Changes in muscle tension were measured with isometric force transducers (Grass, FT-03C) and recorded using AcqKnowledge data acquisition system (AcqKnowledge for MP100WS, Biopac Systems Inc., Goleta, Calif.). Compound or vehicle was added in the baths for 30 minutes. “Zero” active force was established at the end of the experiment using nifedipine (20 μM). The effects of compounds or vehicle on force was determined by measuring the integral of nifedipine-sensitive force (including resting tone and spontaneous contractions) pre- and 30 min post-compound (or vehicle) addition. Results are expressed as the percentage inhibition of force. DMSO vehicle inhibited force (integral) by −0.6±3.0% (n=25).

SMILES | % MaxiK opening ([1]; at 1 μM) | inhibition [2] [%] | % Inhibition of force (RSI strips) [3] [%] | % MaxiK opening ([1]; at 20 μM) [%] | % MaxiK opening ([1]; at 10 μM)
O=C(CN1CCOCC1)Nc1ccc(Sc2c(-c3cc(Cl)ccc3O)c3cc(C(F)(F)F)ccc3[nH]c2=O)cc1 [Example 1, N-{4-[4-(5-Chloro-2-hydroxy-phenyl)-2-oxo-6-trifluoromethyl-1,2-dihydro-quinolin-3-ylsulfanyl]-phenyl}-2-morpholin-4-yl-acetamide] | 296^⋄ % | 34 | 51 |  | 
CN1CCN(CC(=O)Nc2ccc(Sc3c(-c4cc(Cl)ccc4O)c4cc(C(F)(F)F)ccc4[nH]c3=O)cc2)CC1 [Example 2, N-{4-[4-(5-Chloro-2-hydroxy-phenyl)-2-oxo-6-trifluoromethyl-1,2-dihydro-quinolin-3-ylsulfanyl]-phenyl}-2-(4-methyl-piperazin-1-yl)-acetamide] |  | 19 | 36 | 246 | 
O=C(CCN1CCOCC1)Nc1ccc(Sc2c(-c3cc(Cl)ccc3O)c3cc(C(F)(F)F)ccc3[nH]c2=O)cc1 [Example 3, N-{4-[4-(5-Chloro-2-hydroxy-phenyl)-2-oxo-6-trifluoromethyl-1,2-dihydro-quinolin-3-ylsulfanyl]-phenyl}-3-morpholin-4-yl-propionamide] |  | 22 | 50 | 453 | 
O=C(CCN1CCCC1)Nc1ccc(Sc2c(-c3cc(Cl)ccc3O)c3cc(C(F)(F)F)ccc3[nH]c2=O)cc1 [Example 4, N-{4-[4-(5-Chloro-2-hydroxy-phenyl)-2-oxo-6-trifluoromethyl-1,2-dihydro-quinolin-3-ylsulfanyl]-phenyl}-3-pyrrolidin-1-yl-propionamide] |  | 35 |  | 264 | 
O=C(CCCN1CCCC1)Nc1ccc(Sc2c(-c3cc(Cl)ccc3O)c3cc(C(F)(F)F)ccc3[nH]c2=O)cc1 [Example 5, N-{4-[4-(5-Chloro-2-hydroxy-phenyl)-2-oxo-6-trifluoromethyl-1,2-dihydro-quinolin-3-ylsulfanyl]-phenyl}-4-pyrrolidin-1-yl-butyramide] |  | 36 | 65 | 280 | 
O=C(CN1CCCC1)Nc1ccc(Sc2c(-c3cc(Cl)ccc3O)c3cc(C(F)(F)F)ccc3[nH]c2=O)cc1 [Example 6, N-[4-[[4-(5-chloro-2-hydroxyphenyl)-1,2-dihydro-2-oxo-6-(trifluoromethyl)-3-quinolinyl]thio]phenyl]-1-pyrrolidineacetamide] |  | 28 |  | 291 | 
CN(C)CCN(C)CC(=O)Nc1ccc(Sc2c(-c3cc(Cl)ccc3O)c3cc(C(F)(F)F)ccc3[nH]c2=O)cc1 [Example 7, N-[4-[[4-(5-chloro-2-hydroxyphenyl)-1,2-dihydro-2-oxo-6-(trifluoromethyl)-3-quinolinyl]thio]phenyl]-2-[[2-(dimethylamino)ethyl]methylamino]acetamide] |  | 16 | 41 | 231 | 
O=C(CN1CCC(N2CCCCC2)CC1)Nc1ccc(Sc2c(-c3cc(Cl)ccc3O)c3cc(C(F)(F)F)ccc3[nH]c2=O)cc1 [Example 8, N-[4-[[4-(5-chloro-2-hydroxyphenyl)-1,2-dihydro-2-oxo-6-(trifluoromethyl)-3-quinolinyl]thio]phenyl]-[1,4′-bipiperidine]-1′-acetamide] |  | 45 |  | 283 | 
O=C(CN1CCN(c2ccccn2)CC1)Nc1ccc(Sc2c(-c3cc(Cl)ccc3O)c3cc(C(F)(F)F)ccc3[nH]c2=O)cc1 [Example 9, N-[4-[[4-(5-chloro-2-hydroxyphenyl)-1,2-dihydro-2-oxo-6-(trifluoromethyl)-3-quinolinyl]thio]phenyl]-4-(2-pyridinyl)-1-piperazineacetamide] |  | 17 |  |  | 116^⋄⋄ %
CN(C)C1CCN(CC(=O)Nc2ccc(Sc3c(-c4cc(Cl)ccc4O)c4cc(C(F)(F)F)ccc4[nH]c3=O)cc2)CC1 [Example 10, N-[4-[[4-(5-chloro-2-hydroxyphenyl)-1,2-dihydro-2-oxo-6-(trifluoromethyl)-3-quinolinyl]thio]phenyl]-4-(dimethylamino)-1-piperidineacetamide] |  | 19 | 54 | 292 | 
CN1CCN(CCC(=O)Nc2ccc(Sc3c(-c4cc(Cl)ccc4O)c4cc(C(F)(F)F)ccc4[nH]c3=O)cc2)CC1 [Example 11, N-[4-[[4-(5-chloro-2-hydroxyphenyl)-1,2-dihydro-2-oxo-6-(trifluoromethyl)-3-quinolinyl]thio]phenyl]-4-methyl-1-piperazinepropanamide] |  | 30 | 70 | 474 | 
CN(C)CCN(C)CCC(=O)Nc1ccc(Sc2c(-c3cc(Cl)ccc3O)c3cc(C(F)(F)F)ccc3[nH]c2=O)cc1 [Example 12, N-[4-[[4-(5-chloro-2-hydroxyphenyl)-1,2-dihydro-2-oxo-6-(trifluoromethyl)-3-quinolinyl]thio]phenyl]-3-[[2-(dimethylamino)ethyl]methylamino]propanamide] |  | 29 |  | 489 | 
O=C(CCN1CCC(N2CCCCC2)CC1)Nc1ccc(Sc2c(-c3cc(Cl)ccc3O)c3cc(C(F)(F)F)ccc3[nH]c2=O)cc1 [Example 13, N-[4-[[4-(5-chloro-2-hydroxyphenyl)-1,2-dihydro-2-oxo-6-(trifluoromethyl)-3-quinolinyl]thio]phenyl]-[1,4′-bipiperidine]-1′-propanamide] |  | 23 | 78 | 255 | 
O=C(CCCN1CCC(N2CCCCC2)CC1)Nc1ccc(Sc2c(-c3cc(Cl)ccc3O)c3cc(C(F)(F)F)ccc3[nH]c2=O)cc1 [Example 15, N-[4-[[4-(5-chloro-2-hydroxyphenyl)-1,2-dihydro-2-oxo-6-(trifluoromethyl)-3-quinolinyl]thio]phenyl]-[1,4′-bipiperidine]-1′-butanamide] |  |  |  | 268 | 
O=C(CCCN1CCN(c2ccccn2)CC1)Nc1ccc(Sc2c(-c3cc(Cl)ccc3O)c3cc(C(F)(F)F)ccc3[nH]c2=O)cc1 [Example 16, N-[4-[[4-(5-chloro-2-hydroxyphenyl)-1,2-dihydro-2-oxo-6-(trifluoromethyl)-3-quinolinyl]thio]phenyl]-4-(2-pyridinyl)-1-piperazinebutanamide] | 197^⋄ % | 37 |  |  | 
